The test system of series [1] is P. simplex bacteria (steroid responsive genome island, SRGI). Nature of the series: RNA-Seq screen of steroid treated P. simplex against solvent controls. The settings on record: Log2 fold change vs solvent control. The class given is cell-based, Pimelobacter simplex. The source says: In order to identify steroid binding Transcription Factors, a whole transcriptome RNA sequencing (RNA-Seq) screen was developed (FIG. 7). The growth of Pimelobacter simplex bacteria was profiled with respect to the starting inoculation density, solvent toxicity, and the addition of steroids (FIG. 16). […] P. simplex bacteria were screened against the steroid solvents ethanol (EtOH) and dimethyl sulfoxide (DMSO). […] Steroid growth curves were similarly performed using a starting OD of 0.005 and constant solvent dosing with titrations of steroids. […] P. simplex bacteria were grown in the presence of 700 μM testosterone, 21.88 μM progesterone, 87.50 μM estrone, 21.88 μM 17β-estradiol, 21.88 μM hydrocortisone, or 175.00 μM aldosterone concentrations were selected for comparison.
Using accession gene tags, genes were annotated for steroid relevant enzymes or transcription factors. […] Allosteric TF binding sequences are often palindromes and typically located near the start of its gene location in an intergenic space. With such a design, the allosteric TF can regulate itself or the open reading frame (ORF) near it in response to its effector molecule. […] Once identified, the TFs were cloned and recombinantly expressed for thorough characterization.
Cells were grown in 6 mL volumes of media at the OD, solvent, and steroid concentrations found from the growth curves in 14 mL polypropylene round-bottom tubes (Corning #352059) in technical duplicate. The same controls as in the steroid exposure growth curve were used for setting up RNA extraction samples. The cells were incubated at their corresponding temperature with continuous orbital shaking at 150 rpm until the end of lag-phase, mid-log phase, or stationary phase from the start of inoculation. Afterward, samples were removed and a 1:1 ratio of RNAprotect Bacteria Reagent (Qiagen #76506) was added followed by spinning down at 4° C. for 10 minutes at 4000 g. Supernatant was removed and the pellet re-suspended in 300 μL of RNAprotect and transferred into 2.0 mL Safe-Lock Tubes (Eppendorf #3101). The samples were then spun down once again at 4° C. for 10 minutes at 10000 g. Once the supernatant has been removed the samples were placed on ice and ready for RNA extraction. RNA extraction was done by Qiacube (Qiagen #9001292) set to the RNeasy Protect Bacteria Mini Kit protocol of bacterial cell pellet with enzymatic lysis. Tube A was prepared as described except with the addition of 150 mg/mL lysozyme (Sigma-Aldrich #L6876) and 20 mg/mL proteinase K (Roche #03115879001) all diluted in 1xTE buffer. RNA samples were subsequently quantified using Qubit RNA HS Assay Kit (Thermo Fisher Scientific #Q32852) and analyzed using a RNA 6000 Pico Kit (Agilent 5067-1513) in a 2100 Bioanalyzer (Agilent G2939A). RNA samples were either immediately used for RNA-Seq library preparation or stored long-term at −80° C.
RNA-Seq libraries were then produced from these samples using a slightly modified ScriptSeq v2 RNA-Seq Library Preparation Kit (Illumina 455A/22124) ensuring use of unique index primers through ScriptSeq Index PCR Primers (Sets 1-4) 48 rxns/set (Illumina #SSIP1234).

The subject of series [2] is Pimelobacter simplex. The experiment in a line: Solvent and steroid exposure growth curves. As to conditions: P. simplex, starting OD 0.005, constant solvent.

Consider one molecule from patent publication US11360104B2, “Microbial-based biosensors” (TRUSTEES OF BOSTON UNIVERSITY, priority 2017, dated 2022).

For `CC(=O)[C@H]1CC[C@H]2[C@@H]3CCC4=CC(=O)CC[C@]4(C)[C@H]3CC[C@]12C` [PRG, Progesterone], in series [1], the “upregulation of genes inside the SRGI (in words)” value is given as “upregulation of genes inside the SRGI were observed”. The “highest steroid concentration exhibiting normal growth profile” value in series [2] was 21.88 µM.
